# Source: patent publication US11857579B2, “Composition for promoting the secretion of FGF21” (MORINAGA MILK INDUSTRY CO., LTD., priority 2018, dated 2024)
# Experiments:
# [1] = tested on: FGF21 gene in liver; test: Expression of FGF21 gene in liver by RT-PCR after oral administration to neonatal mice; assay type: in vivo, C57BL/6J male mice
# Text: (§1) Bacterial cell powder (2.4×10^11 cfu/g) of Bifidobacterium breve M-16V (NITE BP-02622) triturated with starch was suspended in physiological saline to prepare a Bifidobacterium liquid of 2.5×10^9 cfu/ml.
# (§2) Lactulose (manufactured by Morinaga Milk Industry Co., Ltd.), raffinose (product name: Nitten Rraffinose, manufactured by Nippon Beet Sugar Manufacturing Co., Ltd.), and galactooligosaccharide were mixed at a ratio by weight of 1:1:1 and diluted in distilled water to prepare an oligosaccharide stock solution having a total final concentration of 250 mg/ml. The galactooligosaccharide is obtained by removing monosaccharides and disaccharides from a commercial product (product name: Oligomate 55N, manufactured by Yakult Pharmaceutical Industry Co., Ltd.) and contains about 65% by weight of Galβ1-4Galβ1-4Glc (4′-galactosyl lactose) and about 15% by weight of Galβ1-6Galβ1-4Glc (6′-galactosyl lactose). […]
# (§3) Each animal was subjected to anatomy at 21 days old and the serum and liver were taken out of the body. The FGF21 concentration in the serum and the expression of FGF21 gene in the liver were determined. The FGF21 concentration in the serum was measured with an ELISA kit (manufactured by R&D Systems). The expression of FGF21 gene in the liver was measured by RT-PCR. […]
# [2] = tested on: FGF21; test: FGF21 concentration in serum by ELISA after oral administration to neonatal mice; assay type: in vivo, C57BL/6J male mice; settings: 100 μl once a day during 6 to 20 days old, serum taken at 21 days old
# Text: as §1, §2, §3
substance,measurement,setting,value
Bifidobacterium breve M-16V (NITE BP-02622) [Group B],Expression of FGF21 gene in the liver compared with group A and group C,"[1]; at 21 days old, versus group A (vehicle) and group C (oligosaccharide)",significantly higher
same,"Expression of FGF21 gene in liver (values relative to the value of Group A which was taken as 100.0), Average","[1]; neonatal mice, 100 μl once a day during 6 to 20 days old, liver taken at 21 days old, RT-PCR, Group A (vehicle) = 100.0",197.7
same,"FGF21 Concentration in serum, Average",[2],397.3 pg/mL
